{"source": "paper PMC8382989", "about": "(Biochemistry, 2013)", "molecules": {"B1": {"name": "human ribonucleotide reductase subunit α (enzyme, UniProt P23921 1-792, looked up)", "chain": "MHVIKRDGRQERVMFDKITSRIQKLCYGLNMDFVDPAQITMKVIQGLYSGVTTVELDTLAAETAATLTTKHPDYAILAARIAVSNLHKETKKVFSDVMEDLYNYINPHNGKHSPMVAKSTLDIVLANKDRLNSAIIYDRDFSYNYFGFKTLERSYLLKINGKVAERPQHMLMRVSVGIHKEDIDAAIETYNLLSERWFTHASPTLFNAGTNRPQLSSCFLLSMKDDSIEGIYDTLKQCALISKSAGGIGVAVSCIRATGSYIAGTNGNSNGLVPMLRVYNNTARYVDQGGNKRPGAFAIYLEPWHLDIFEFLDLKKNTGKEEQRARDLFFALWIPDLFMKRVETNQDWSLMCPNECPGLDEVWGEEFEKLYASYEKQGRVRKVVKAQQLWYAIIESQTETGTPYMLYKDSCNRKSNQQNLGTIKCSNLCTEIVEYTSKDEVAVCNLASLALNMYVTSEHTYDFKKLAEVTKVVVRNLNKIIDINYYPVPEACLSNKRHRPIGIGVQGLADAFILMRYPFESAEAQLLNKQIFETIYYGALEASCDLAKEQGPYETYEGSPVSKGILQYDMWNVTPTDLWDWKVLKEKIAKYGIRNSLLIAPMPTASTAQILGNNESIEPYTSNIYTRRVLSGEFQIVNPHLLKDLTERGLWHEEMKNQIIACNGSIQSIPEIPDDLKQLYKTVWEISQKTVLKMAAERGAFIDQSQSLNIHIAEPNYGKLTSMHFYGWKQGLKTGMYYLRTRPAANPIQFTLNKEKLKDKEKVSKEEEEKERNTAAMVCSLENRDECLMCGS"}, "B2": {"name": "human D57N-α (point mutant of human RNR subunit α) (enzyme, UniProt P23921 1-792, looked up)", "chain": "B1 chain with D57N"}, "B3": {"name": "E. coli ribonucleotide reductase subunit β (enzyme)", "chain": "AYTTFSQTKNDQLKEPMFFGQPVNVARYDQQKYDIFEKLIEKQLSFFWRPEEVDVSRDRIDYQALPEHEKHIFISNLKYQTLLDSIQGRSPNVALLPLISIPELETWVETWAFSETIHSRSYTHIIRNIVNDPSVVFDDIVTNEQIQKRAEGISSYYDELIEMTSYWHLLGEGTHTVNGKTVTVSLRELKKKLYLCLMSVNALEAIRFYVSFACSFAFAERELMEGNAKIIRLIARDEALHLTGTQHMLNLLRSGADDPEMAEIAEECKQECYDLFVQAAQQEKDWADYLFRDGSMIGLNKDILCQYVEYITNIRMQAVGLDLPFQTRSNPIPWINTWLVSDNVQVAPQEVEVSSYLVGQIDSEVDTDDLSNFQL"}}, "key": {"[1]": {"molecular_target": "T1, human RNR subunit α (H-α) (Homo sapiens, UniProt P23921)", "T1 sequence (P23921 1-792)": "B1 chain", "test": "CDP reductase activity titration with dATP", "assay_type": "biochemical"}, "[2]": {"molecular_target": "T2, human RNR subunit α, N-terminal domain alone (H-NTD) (Homo sapiens, UniProt P23921)", "T2 sequence (P23921 1-91)": "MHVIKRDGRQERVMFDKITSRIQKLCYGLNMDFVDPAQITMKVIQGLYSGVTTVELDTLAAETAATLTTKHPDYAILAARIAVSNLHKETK", "test": "fluorescence anisotropy titration", "assay_type": "binding"}, "[3]": {"molecular_target": "E. coli RNR subunit α, catalytic body alone (E-CB) (Escherichia coli, UniProt P00452)", "sequence (P00452 94-761)": "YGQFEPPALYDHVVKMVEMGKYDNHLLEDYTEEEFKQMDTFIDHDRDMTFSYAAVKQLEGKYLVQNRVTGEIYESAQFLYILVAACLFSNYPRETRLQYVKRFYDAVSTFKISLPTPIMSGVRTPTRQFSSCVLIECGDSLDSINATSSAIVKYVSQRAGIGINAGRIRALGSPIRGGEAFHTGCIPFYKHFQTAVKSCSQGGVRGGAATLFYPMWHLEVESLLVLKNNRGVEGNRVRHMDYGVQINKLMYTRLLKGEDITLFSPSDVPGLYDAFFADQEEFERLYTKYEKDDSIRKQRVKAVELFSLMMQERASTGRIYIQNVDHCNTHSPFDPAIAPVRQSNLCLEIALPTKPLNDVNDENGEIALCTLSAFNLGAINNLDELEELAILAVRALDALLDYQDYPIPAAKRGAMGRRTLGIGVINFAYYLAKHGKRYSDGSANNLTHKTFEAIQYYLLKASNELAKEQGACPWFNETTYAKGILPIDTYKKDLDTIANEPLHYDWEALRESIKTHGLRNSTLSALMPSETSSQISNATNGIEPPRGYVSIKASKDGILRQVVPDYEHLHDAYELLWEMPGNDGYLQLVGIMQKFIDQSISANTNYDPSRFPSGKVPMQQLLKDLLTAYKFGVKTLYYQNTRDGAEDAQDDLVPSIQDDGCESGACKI", "test": "fluorescence anisotropy titration", "assay_type": "binding"}, "[4]": {"molecular_target": "the molecule itself", "test": "SEC"}, "[5]": {"molecular_target": "the molecule itself", "test": "SEC", "remark": "listed apart in the source"}}, "note": "Positions count from the first letter of the chain named. In names and notes the source's numbering stands. Read-outs that look alike come from different tables or passages of the source."}
{"molecule": "Nc1ncnc2c1ncn2[C@H]1C[C@H](O)[C@@H](COP(=O)(O)OP(=O)(O)OP(=O)(O)O)O1", "note": "[dATP]", "values": [{"measurement": "EC50", "setting": "[1]", "value": "33 ± 7", "unit": "µM"}]}
{"molecule": "Texas Red-5-dATP", "values": [{"measurement": "Kd", "setting": "[2]", "value": "153 ± 19", "unit": "µM"}, {"measurement": "Kd", "setting": "[3]", "value": "5.3 ± 0.3", "unit": "µM"}]}
{"molecule": "B1", "values": [{"measurement": "stoichiometry N", "setting": "[4]", "value": 6}]}
{"molecule": "B2", "values": [{"measurement": "stoichiometry N", "setting": "[4]", "value": 2}]}
{"molecule": "B3", "values": [{"measurement": "stoichiometry N", "setting": "[5]", "value": 2}]}
